This note sets out measurements from ChEMBL document CHEMBL4477232, “Synthesis and evaluation of novel 1,2,3-triazole-based acetylcholinesterase inhibitors with neuroprotective activity” (Bioorg Med Chem Lett, 2016).

Data set [1] can be described thus: Selectivity ratio of IC50 for equine serum BuChE to IC50 for electric eel AChE.
A further data set addresses Acetylcholinesterase (Electrophorus electricus, UniProt O42275). Put plainly: Inhibition of electric eel AChE preincubated for 6 mins followed by addition of acetylthiocholine iodide by Ellman's method. (In general: In Ellman's method for cholinesterases, released thiocholine reacts with DTNB.)
The next data set addresses Cholinesterase (Equus caballus, UniProt P81908). Put plainly: Inhibition of equine serum BuChE preincubated for 6 mins followed by addition of S-butyrylthiocholine iodide by Ellman's method.
The test system of data set [2] is SH-SY5Y. The experiment in a line: Neuroprotective activity against amyloid beta (25 to 35 residues)-induced cell damage in human SH-SY5Y cells assessed as cell viability at 1 uM preincubated for 2 hrs followed by amyloid beta (25 to 35 residues) addition measured after 24 hrs by MTT assay (reference value: 62.3 %). Type of data set: functional. The conditions noted are these: for viability at 1 µM: read-out: Activity. Background: Tetrazolium assays rely on reduction of a dye to a coloured formazan, in cell work by metabolically active cells.

For data set [3], the system named is SH-SY5Y. The experiment in a line: Neuroprotective activity against amyloid beta (25 to 35 residues)-induced cell damage in human SH-SY5Y cells assessed as recovery of cell viability at 10 uM preincubated for 2 hrs followed by amyloid beta (25 to 35 residues) addition measured after 24 hrs by MTT assay. It counts as functional.
The test system of data set [4] is SH-SY5Y. Put plainly: Neuroprotective activity against amyloid beta (25 to 35 residues)-induced cell damage in human SH-SY5Y cells assessed as cell viability at 10 uM preincubated for 2 hrs followed by amyloid beta (25 to 35 residues) addition measured after 24 hrs by MTT assay (reference value: 62.3 %). Type of data set: functional. The following applies: for viability at 10 µM: read-out: Activity.

The test system of data set [5] is SH-SY5Y. Put plainly: Neuroprotective activity against amyloid beta (25 to 35 residues)-induced cell damage in human SH-SY5Y cells assessed as recovery of cell viability at 1 uM preincubated for 2 hrs followed by amyloid beta (25 to 35 residues) addition measured after 24 hrs by MTT assay. Type of data set: functional.
For the next data set, the system named is HaCaT. The experiment in a line: Cytotoxicity against human HaCaT assessed as cell viability upto 400 uM after 24 hrs by MTT assay relative to control. It counts as cell-based.
For a further data set, the system named is NIH3T3. The experiment in a line: Cytotoxicity against mouse NIH/3T3 assessed as cell viability upto 400 uM after 24 hrs by MTT assay relative to control. Type of data set: cell-based. The conditions noted are these: nih3t3, 24 h.

Active and inactive are the calls of the source. The rule behind the calls is not given here.

Chain of Cholinesterase (P81908 whole entry, the tested form may be a part): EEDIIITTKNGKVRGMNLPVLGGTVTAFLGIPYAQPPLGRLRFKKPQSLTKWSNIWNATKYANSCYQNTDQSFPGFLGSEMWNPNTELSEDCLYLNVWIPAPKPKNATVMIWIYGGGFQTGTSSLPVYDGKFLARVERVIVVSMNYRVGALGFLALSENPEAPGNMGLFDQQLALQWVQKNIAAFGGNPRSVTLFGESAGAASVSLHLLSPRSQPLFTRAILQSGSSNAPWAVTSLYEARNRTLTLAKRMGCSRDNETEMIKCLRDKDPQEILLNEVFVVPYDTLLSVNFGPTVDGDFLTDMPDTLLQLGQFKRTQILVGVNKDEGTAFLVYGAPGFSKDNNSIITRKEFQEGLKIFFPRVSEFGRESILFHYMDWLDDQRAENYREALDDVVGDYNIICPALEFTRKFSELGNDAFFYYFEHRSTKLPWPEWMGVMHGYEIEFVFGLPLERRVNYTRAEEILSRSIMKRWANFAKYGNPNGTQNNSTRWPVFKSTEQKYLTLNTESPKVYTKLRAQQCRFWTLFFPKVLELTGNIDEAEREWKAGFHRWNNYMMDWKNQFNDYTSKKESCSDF
Chain of Acetylcholinesterase (O42275 whole entry): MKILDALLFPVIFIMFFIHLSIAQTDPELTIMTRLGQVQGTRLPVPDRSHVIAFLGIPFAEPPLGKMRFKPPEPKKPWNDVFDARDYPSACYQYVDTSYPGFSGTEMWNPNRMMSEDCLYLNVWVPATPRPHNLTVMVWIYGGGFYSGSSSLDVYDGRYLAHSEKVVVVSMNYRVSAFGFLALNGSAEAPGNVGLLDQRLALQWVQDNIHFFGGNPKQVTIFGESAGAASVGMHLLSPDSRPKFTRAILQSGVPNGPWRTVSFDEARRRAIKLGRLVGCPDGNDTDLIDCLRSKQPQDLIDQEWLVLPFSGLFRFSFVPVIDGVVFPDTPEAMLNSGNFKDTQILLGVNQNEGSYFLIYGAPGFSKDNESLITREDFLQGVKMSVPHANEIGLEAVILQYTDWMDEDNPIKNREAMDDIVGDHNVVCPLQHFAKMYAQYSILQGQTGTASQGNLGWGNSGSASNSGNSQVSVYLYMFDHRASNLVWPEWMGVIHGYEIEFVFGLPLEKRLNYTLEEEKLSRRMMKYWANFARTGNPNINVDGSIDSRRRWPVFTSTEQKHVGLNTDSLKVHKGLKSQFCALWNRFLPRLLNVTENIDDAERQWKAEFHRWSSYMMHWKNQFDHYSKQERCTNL

What is called IC50 is the point on the concentration scale where inhibition reaches its midpoint. Low values mean greater potency in that assay, high ones weaker potency in that assay. With `Cc1ccc(-c2cn(Cc3ccc(F)c([N+](=O)[O-])c3)nn2)cc1C(=O)NCCN1CCOCC1`, the Ratio IC50 in data set [1] amounted to 1.2. For the same compound, the values for the IC50 against Acetylcholinesterase and against Cholinesterase were 30.1 µM and 34.8 µM, respectively.

For the compound `Cc1ccc(-c2cn(Cc3ccc(F)cc3F)nn2)cc1C(=O)NCCN1CCOCC1`, the Ratio IC50 in data set [1] stood at 3.7. Also, the results for the concentration for half-maximal inhibition (IC50) against Acetylcholinesterase and at Cholinesterase were 24.4 µM and 89.6 µM, respectively.

As to `Cc1ccc(-c2cn(Cc3cccc(Br)c3)nn2)cc1C(=O)NCCN1CCOCC1`, the Ratio IC50 in data set [1] was determined as 2. For the same compound, the values for the IC50 against Acetylcholinesterase and at Cholinesterase were 28.4 µM and 40.3 µM, respectively.

Regarding `Cc1ccc(-c2cn(Cc3ccc(C(F)(F)F)cc3)nn2)cc1C(=O)NCCN1CCOCC1`, the outcome with SH-SY5Y [2] and in the data set with SH-SY5Y [5] was inactive. Moreover, the Activity with SH-SY5Y [3] is given as 22.9%. In addition, in the data set on SH-SY5Y [4], the viability at 10 µM stood at 85.2%. Further, it took 27.4 µM to reach half-maximal inhibition against Acetylcholinesterase (IC50).

With `Cc1ccc(Cn2cc(-c3ccc(C)c(C(=O)NCCN4CCOCC4)c3)nn2)cc1`, the Ratio IC50 in data set [1] was 1.4. For the same compound, the IC50 against Acetylcholinesterase came to 60.1 µM; on Cholinesterase, 83.1 µM.

Regarding `Cc1ccc(-c2cn(Cc3cccc(Cl)c3)nn2)cc1C(=O)NCCN1CCOCC1`, the Ratio IC50 in data set [1] was 1.1. Besides, the 50% inhibitory concentration (IC50) against Acetylcholinesterase amounted to 32.6 µM; against Cholinesterase, 36.3 µM.

For `Cc1ccc(-c2cn(Cc3ccc(OC(F)(F)F)cc3)nn2)cc1C(=O)NCCN1CCOCC1`, the Ratio IC50 in data set [1] stood at 2. Moreover, the values for the IC50 against Acetylcholinesterase and on Cholinesterase were 30.2 µM and 60.2 µM, respectively.

As for `Cc1cc(C)cc(Cn2cc(-c3ccc(C)c(C(=O)NCCN4CCOCC4)c3)nn2)c1`, the Ratio IC50 in data set [1] came out at 0.9. The figures for the IC50 against Acetylcholinesterase and against Cholinesterase were 64.2 µM and 56.2 µM, respectively.

Regarding `Cc1ccc(-c2cn(Cc3ccc(Br)cc3)nn2)cc1C(=O)NCCN1CCOCC1`, the Ratio IC50 in data set [1] worked out at 2.2. Moreover, the figures for the half-maximal inhibitory concentration (IC50) against Acetylcholinesterase and on Cholinesterase were 20.5 µM and 45.6 µM, respectively.

For `Cc1ccc(-c2cn(Cc3ccc(S(N)(=O)=O)cc3)nn2)cc1C(=O)NCCN1CCOCC1`, the Ratio IC50 in [1] is 1.5. The IC50 at Acetylcholinesterase was determined as 30.3 µM; on Cholinesterase, 45.5 µM.

On to `Cc1ccc(-c2cn(Cc3ccc([N+](=O)[O-])cc3)nn2)cc1C(=O)NCCN1CCOCC1`, for which the Ratio IC50 in [1] came out at 2.9. In addition, the IC50 was found to be 20.4 µM against Acetylcholinesterase and 60.5 µM against Cholinesterase.

In the case of `Cc1ccc(-c2cn(Cc3ccc(C#N)cc3)nn2)cc1C(=O)NCCN1CCOCC1`, the outcome with SH-SY5Y [2] and with SH-SY5Y [5] was inactive. For the same compound, the Ratio IC50 in [1] was found to be 7.6. Further, the Activity with SH-SY5Y [3] was 16.6%; in the data set with HaCaT it was “Non-Toxic”; with NIH3T3 it was “Non-Toxic”. The viability at 10 µM with SH-SY5Y [4] amounted to 78.9%. Also, the IC50 came out at 12.1 µM against Acetylcholinesterase and 92.8 µM against Cholinesterase.

With `Cc1ccc(-c2cn(Cc3ccccc3Cl)nn2)cc1C(=O)NCCN1CCOCC1`, the Ratio IC50 in data set [1] came to 1.1. Besides, the IC50 came out at 31.3 µM against Acetylcholinesterase and 34.5 µM against Cholinesterase.

Consider `Cc1ccc(-c2cn(Cc3cccc(F)c3)nn2)cc1C(=O)NCCN1CCOCC1`, for which the Ratio IC50 in data set [1] was 1.2. In addition, the half-inhibitory concentration (IC50) was determined as 30.1 µM against Acetylcholinesterase and 60.8 µM against Cholinesterase.

Regarding `Cc1ccc(-c2cn(Cc3ccccc3C(F)(F)F)nn2)cc1C(=O)NCCN1CCOCC1`, the Ratio IC50 in [1] stood at 1.3. The IC50 was determined as 34.1 µM on Acetylcholinesterase and 45.1 µM on Cholinesterase.

`Cc1ccc(-c2cn(Cc3cccc4ccccc34)nn2)cc1C(=O)NCCN1CCOCC1`: in data set [1], the Ratio IC50 came to 1.58. Also, the results for the 50% inhibitory concentration (IC50) at Acetylcholinesterase and at Cholinesterase were 46.2 µM and 72.9 µM, respectively.

On to `Cc1ccc(-c2cn(Cc3ccc4ccccc4c3)nn2)cc1C(=O)NCCN1CCOCC1`, for which the viability at 1 µM in the data set with SH-SY5Y [2] stood at 77.9%. In [1], the Ratio IC50 is 12.6. Besides, the Activity with SH-SY5Y [3] is given as 34.2%; with HaCaT, “Non-Toxic”; with NIH3T3 it was “Non-Toxic”; in the data set with SH-SY5Y [5], 15.6%. Moreover, in the data set on SH-SY5Y [4], the viability at 10 µM amounted to 96.5%. Besides, the 50% inhibitory concentration (IC50) at Acetylcholinesterase was found to be 7.23 µM; against Cholinesterase, 90.8 µM.

Turning to `O=C(O[C@@H]1Cc2c(O)cc(O)cc2O[C@@H]1c1cc(O)c(O)c(O)c1)c1cc(O)c(O)c(O)c1` [EPIGALOCATECHIN GALLATE], the Activity with SH-SY5Y [3] is 33.4%. In the data set on SH-SY5Y [4], the viability at 10 µM was found to be 95.7%.

With `Cc1ccc(-c2cn(Cc3ccc(F)c(F)c3)nn2)cc1C(=O)NCCN1CCOCC1`, the viability at 1 µM in the data set on SH-SY5Y [2] worked out at 70.3%. For the same compound, the Ratio IC50 in [1] came to 6.2. Further, the Activity with SH-SY5Y [3] is given as 27.1%; in the data set on HaCaT, “Non-Toxic”; in the data set on NIH3T3 it was “Non-Toxic”; in the data set with SH-SY5Y [5], 8%. Also, the viability at 10 µM in the data set with SH-SY5Y [4] was determined as 89.4%. The IC50 at Acetylcholinesterase turned out to be 15.4 µM; against Cholinesterase it was 95.4 µM.

Regarding `Cc1ccc(-c2cn(Cc3ccccc3Br)nn2)cc1C(=O)NCCN1CCOCC1`, in data set [1], the Ratio IC50 came to 2.2. Further, the half-maximal inhibitory concentration (IC50) against Acetylcholinesterase is 35.2 µM; against Cholinesterase it was 78.6 µM.

`C#Cc1ccc(C)c(C(=O)NCCN2CCOCC2)c1`: the IC50 on Acetylcholinesterase is greater than 100 µM.

Regarding `Cc1ccc(-c2cn(Cc3ccccc3F)nn2)cc1C(=O)NCCN1CCOCC1`, the Ratio IC50 in data set [1] stood at 2. Further, the values for the IC50 on Acetylcholinesterase and against Cholinesterase were 39.3 µM and 47.2 µM, respectively.

As to `Cc1ccc(-c2cn(Cc3ccc(F)cc3Br)nn2)cc1C(=O)NCCN1CCOCC1`, the Ratio IC50 in data set [1] came to 2.3. In addition, the IC50 on Acetylcholinesterase came out at 31.4 µM; against Cholinesterase it was 70.8 µM.

For the compound `Cc1ccc(-c2cn(Cc3ccc(F)cc3)nn2)cc1C(=O)NCCN1CCOCC1`, the Ratio IC50 in data set [1] was found to be 2.1. Moreover, the IC50 against Acetylcholinesterase amounted to 21.2 µM; on Cholinesterase, 43.7 µM.

`Cc1ccc(-c2cn(C)nn2)cc1C(=O)NCCN1CCOCC1`: the Ratio IC50 in data set [1] is 1.5. Moreover, the concentration for half-maximal inhibition (IC50) stood at 45.2 µM on Acetylcholinesterase and 68.1 µM against Cholinesterase.

Consider `COC(=O)/C=C/c1ccc(Cn2cc(-c3ccc(C)c(C(=O)NCCN4CCOCC4)c3)nn2)cc1`, for which, in data set [1], the Ratio IC50 is 2. Moreover, the IC50 came to 44.7 µM on Acetylcholinesterase and 90.9 µM on Cholinesterase.

`COc1ccc(Br)c(Cn2cc(-c3ccc(C)c(C(=O)NCCN4CCOCC4)c3)nn2)c1`: the Ratio IC50 in data set [1] came out at 1.2. The IC50 against Acetylcholinesterase turned out to be 40.8 µM; on Cholinesterase it was 50.8 µM.

In the case of `COC(=O)c1ccc(Cn2cc(-c3ccc(C)c(C(=O)NCCN4CCOCC4)c3)nn2)cc1`, the Ratio IC50 in [1] turned out to be 1.8. The values for the IC50 on Acetylcholinesterase and on Cholinesterase were 38.4 µM and 67.8 µM, respectively.

For the compound `Cc1cc(F)ccc1Cn1cc(-c2ccc(C)c(C(=O)NCCN3CCOCC3)c2)nn1`, in data set [1], the Ratio IC50 was 1.6. Moreover, the half-inhibitory concentration (IC50) amounted to 37.6 µM at Acetylcholinesterase and 61 µM against Cholinesterase.

Regarding `Cc1ccc(-c2cn(Cc3ccc(F)cc3Cl)nn2)cc1C(=O)NCCN1CCOCC1`, the Ratio IC50 in data set [1] amounted to 6.6. Further, the result in the data set on SH-SY5Y [3] and in the data set on SH-SY5Y [4] was inactive. The IC50 against Acetylcholinesterase worked out at 10.4 µM; against Cholinesterase, 68.9 µM.
